What was measured:
Raji cells = assay: CellTiter-Glo 2.0 cell viability assay, Raji; assay type: cell-based, human; conditions: conjugated to antiCD19 antibody chiBCE19 D265C
Experimental: Cytotoxic activity of anti CD19 amatoxin conjugates on target positive cells was assessed by CellTiter-Glo 2.0 Luminescent Cell Viability Assay (Promega, Madison, WI) in 96-well tissue culture plates. Cell viability was determined after 96 h incubation with different concentrations of conjugates at 37° C. and 5% CO2. Data analysis was performed with GraphPad Prism 7 (GraphPad Software, Inc, La Jolla, CA) software to plot curve fits and perform statistical analyses. Nonlinear variable slope curve-fits were plotted as log[ADC] vs. Response and EC50 values were generated.
Raji is a cell line derived from Burkitt's lymphoma.

[1] = system: Jimt-1 breast cancer cells (s.c. xenograft); assay: Jimt-1 xenograft model, tumor volume; assay type: in vivo, NMRI nude mice; conditions: conjugated to Trastuzumab D265C; JIMT xenografts; single intravenous dose
Experimental: (§1) Jimt-1 xenograft model: Female NMRI nude mice were inoculated with 5×10^6 Jimt-1 breast cancer cells per mouse subcutaneously in the right flank. At a mean tumor vol. of ˜120 mm^3, animals were allocated to groups on day 0. On the same day the animals received a single intravenous dose of amanitin based anti-Her2 antibody drug conjugates (ADCs) Tumor volume and body weight were determined twice per week.
(§2) Tumor growth was monitored by caliper measurement. Tumor size was calculated according to the equation: volume=W^2×L×0.5 (L=length and W=perpendicular width of the tumor, L>W).

[2] = system: Raji Burkitt's lymphoma cells (s.c. xenograft); assay: Raji s.c. xenograft model (solid tumor), tumor volume; assay type: in vivo, CB17 SCID mice; conditions: for Efficacy Raji sc: anti-CD19 conjugate, grade, key not given; for tumor shrinking activity (FIG. 7): conjugated to chiBCE19 D265C, Raji cells injected s.c., single intravenous dose
Experimental: as §1, with “Raji” for “Jimt-1”, “CB17 SCID” for “NMRI nude”, “2.5×10^6 Raji Burkitt's lymphoma” for “5×10^6 Jimt-1 breast cancer”, “˜80” for “˜120”, “anti-CD19” for “anti-Her2”
as §2
Growth inhibition experiments were then carried out with tumor xenografts of Raji cells injected into mice s.c. This approach leads to tumors that mimic the phenotype of a solid tumor.

JIMT-1 cells = assay: Cell viability assay (BrdU incorporation), JIMT-1; assay type: cell-based; conditions: conjugated to Trastuzumab D265C
Experimental: (§3) Cytotoxic activity of anti PSMA and anti-Her2 amatoxin conjugates was evaluated in vitro with target-positive tumor cell lines and the chemiluminescent BrdU incorporation assay (Roche Diagnostics). Cell viability was determined after 96 h incubation with different concentrations of conjugates at 37° C. and 5% CO2 by measurement of fixed and permeabilized cells with an anti-BrdU-HRP antibody in a BMG Labtech Optima microplate reader. EC50 value of dose-response curve was calculated by Graphpad Prism 4.0 software.
JIMT-1 is a solid cancer cell line derived from a breast ductal adenocarcinoma.

LNCaP cells = assay: Cell viability assay (BrdU incorporation), LNCaP; assay type: cell-based; conditions: conjugated to anti-PSMA antibody h3/F11 D265C
Experimental: as §3
LNCaP is a solid prostate adenocarcinoma cell line derived from a left supraclavicular lymph node metastasis.

[3] = system: LNCap prostate carcinoma cells (s.c. xenograft); assay: LnCap xenograft model, tumor volume; assay type: in vivo, CB17 SCID mice; conditions: conjugated to anti-PSMA antibody h3/F11 D265C; LnCap xenografts; single intravenous dose
Experimental: as §1, with “LnCap” for “Jimt-1”, “Male CB17 SCID” for “Female NMRI nude”, “2.5×10^6 LNCap prostate carcinoma” for “5×10^6 Jimt-1 breast cancer”, “˜150” for “˜120”, “anti-PSMA” for “anti-Her2”
as §2

[4] = Highest non-severely toxic dose, DIG (Digoxigenin antibody) conjugates, Cyno; conditions: Digoxigenin antibody conjugate (no cross reaction with host targets); Cynomolgus monkey
[5] = system: Raji Luc cells (i.v. xenograft); assay: Intravenous Raji-Luc xenograft (liquid tumor), survival; assay type: in vivo, CB17 SCID mice; conditions: conjugated to chiBCE19 D265C; i.v. injected Raji Luc cells; single i.v. dose
Experimental: (§4) Intravenous Nalm-6 xenograft model: Female CB17 SCID mice were inoculated with 2.5×10^6 Raji Burkitt's lymphoma cells per mouse into the tail vein. Animals were allocated to groups on day 0. On day 3 after tumor cell injection, the animals received a single intravenous dose of amanitin based anti-CD19 antibody drug conjugates (ADCs). Body weight was determined twice per week. Survival was monitored daily.
as §4, with “[…]” for “Nalm-6”, “5×10^6 Nalm-6 B Cell precursor leukemia” for “2.5×10^6 Raji Burkitt's lymphoma”
(§5) Survival rates were then investigated with tumor xenografts of Raji cells (with or without transfected luciferase) or Nalm-6 cells obtained by i.v. administration of the respective cells.
(§6) Raji is a cell line derived from Burkitt's lymphoma, Nalm-6 is a cell line derived from acute lymphoblastic leukemia (ALL). Results are shown in the Kaplan Meier curves of FIG. 6.
(§7) Survival experiments were carried out with i.v. injected Raji Luc (FIG. 6A) or NALM6 (FIG. 6B) cells.

[6] = system: Nalm-6 cells (i.v. xenograft); assay: Intravenous Nalm-6 xenograft model (liquid tumor), survival; assay type: in vivo, CB17 SCID mice; conditions: conjugated to chiBCE19 D265C; i.v. injected NALM6 cells; single i.v. dose
Experimental: as §4
as §4, with “[…]” for “Nalm-6”, “5×10^6 Nalm-6 B Cell precursor leukemia” for “2.5×10^6 Raji Burkitt's lymphoma”
as §5, §6, §7

RNA polymerase I = RNA polymerase I (Homo sapiens, UniProt O95602+Q9H9Y6); conditions: cited from earlier work
RNA polymerase III = RNA polymerase III (Homo sapiens, UniProt O14802+Q9NW08); conditions: cited from earlier work

Compound | potency in cell viability assay (FIG. 5) (Raji cells) | tumor shrinking activity (FIG. 2) [1] | Efficacy Raji sc [2] | tumor shrinking activity (FIG. 7) [2] | potency in cell viability assay (FIG. 1) (JIMT-1 cells) | potency in cell viability assay (FIG. 3) (LNCaP cells) | tumor shrinking activity (FIG. 4) [3] | HNSTD DIG Cyno [4] | potency in survival experiment (FIG. 6A) [5] | potency in survival experiment (FIG. 6B) [6] | binding to RNA polymerase I (RNA polymerase I) | binding to RNA polymerase III (RNA polymerase III)
CC[C@H](C)[C@@H]1NC(=O)CNC(=O)[C@@H]2Cc3c([nH]c4cc(OCc5ccc(NC(=O)[C@H](C)NC(=O)[C@@H](NC(=O)CCN6C(=O)C=CC6=O)C(C)C)cc5)ccc34)SCC(NC(=O)CNC1=O)C(=O)N[C@@H](CC(N)=O)C(=O)CN1CC(O)C[C@H]1C(=O)N[C@@H]([C@@H](C)[C@@H](O)CO)C(=O)N2 (stereo partly shown) [30.2371] | comparable potency | strong tumor shrinking activity | ∘ | strong tumor shrinking activity | comparable potency | comparable potency | strong tumor shrinking activity | >2 mg/kg |  |  |  | 
CC[C@H](C)[C@@H]1NC(=O)CNC(=O)[C@@H]2Cc3c([nH]c4cc(O)ccc34)SCC(NC(=O)CNC1=O)C(=O)N[C@@H](CC(=O)NCc1ccc(NC(=O)[C@H](C)NC(=O)C(NC(=O)CCN3C(=O)C=CC3=O)C(C)C)cc1)C(=O)CN1CC(O)C[C@H]1C(=O)N[C@@H]([C@@H](C)[C@@H](O)CO)C(=O)N2 (stereo partly shown) [30.2347] | comparable potency | strong tumor shrinking activity | ∘ | strong tumor shrinking activity | comparable potency | comparable potency | strong tumor shrinking activity | <5 mg/kg |  |  |  | 
CC[C@H](C)[C@@H]1NC(=O)CNC(=O)[C@@H]2Cc3c([nH]c4cc(OCc5ccc(NC(=O)[C@H](C)NC(=O)[C@@H](NC(=O)CCN6C(=O)C=CC6=O)C(C)C)cc5)ccc34)[S@+]([O-])CC(NC(=O)CNC1=O)C(=O)N[C@@H](CC(N)=O)C(=O)CN1CC(O)C[C@H]1C(=O)N[C@@H]([C@@H](C)[C@@H](O)CO)C(=O)N2 (stereo partly shown) [30.1699] | comparable potency | strong tumor shrinking activity | ∘ | strong tumor shrinking activity | comparable potency | comparable potency | strong tumor shrinking activity | >3 mg/kg | lower potency than the Trp variant 30.2115 | lower potency than the Trp variant 30.2115 |  | 
α-amanitin [Alpha-amanitin] |  |  |  |  |  |  |  |  |  |  | no binding | only slightly binds
CC[C@H](C)[C@@H]1NC(=O)CNC(=O)[C@@H]2Cc3c([nH]c4ccccc34)SCC(NC(=O)CNC1=O)C(=O)N[C@@H](CC(=O)NCc1ccc(NC(=O)[C@H](C)NC(=O)C(NC(=O)CCN3C(=O)C=CC3=O)C(C)C)cc1)C(=O)CN1CC(O)C[C@H]1C(=O)N[C@@H]([C@@H](C)[C@@H](O)CO)C(=O)N2 (stereo partly shown) [30.2115, reference compound] | comparable potency | significantly decreased tumor shrinking activity |  | significantly decreased tumor shrinking activity | slightly decreased potency | strongly decreased potency | significantly decreased tumor shrinking activity | <7.5 mg/kg |  |  |  | 
CC[C@H](C)[C@@H]1NC(=O)CNC(=O)[C@@H]2Cc3c([nH]c4ccccc34)[S+]([O-])CC(NC(=O)CNC1=O)C(=O)N[C@@H](CC(=O)NCc1ccc(NC(=O)[C@H](C)NC(=O)[C@@H](NC(=O)CCN3C(=O)C=CC3=O)C(C)C)cc1)C(=O)CN1CC(O)C[C@H]1C(=O)N[C@@H]([C@@H](C)[C@@H](O)CO)C(=O)N2 (stereo partly shown) [30.2183, reference compound] | comparable potency | significantly decreased tumor shrinking activity |  | significantly decreased tumor shrinking activity | strongly decreased potency | strongly decreased potency | significantly decreased tumor shrinking activity |  |  |  |  | 
CC[C@H](C)[C@@H]1NC(=O)CNC(=O)[C@@H]2Cc3c([nH]c4cc(O)ccc34)[S@+]([O-])CC(NC(=O)CNC1=O)C(=O)N[C@@H](CC(=O)NCc1ccc(NC(=O)[C@H](C)NC(=O)C(NC(=O)CCN3C(=O)C=CC3=O)C(C)C)cc1)C(=O)CN1CC(O)C[C@H]1C(=O)N[C@@H]([C@@H](C)[C@@H](O)CO)C(=O)N2 (stereo partly shown) [30.2060] | comparable potency | strong tumor shrinking activity | ∘ | strong tumor shrinking activity | comparable potency | comparable potency | strong tumor shrinking activity | <7.5 mg/kg |  |  |  | 
